Experimental data as given in patent US12459932B2, “KIF18A inhibitors” (AMGEN INC., priority 2018, dated 2025).
Where a name gives a salt, the structure may show the parent alone.

Target: T1, Recombinant human KIF18A (1-467 His-tagged) (Homo sapiens, UniProt Q8NI77)
T1 construct: Recombinant human KIF18A (1-467 His-tagged) protein; His
Experiment: KIF18A Enzyme Assay: microtubule-stimulated ATPase activity (ADP-Glo)
Type: biochemical
Conditions: 30 nM KIF18A, 30 μg/mL pig microtubules, ATP 75 μM (Km), ADP-Glo luminescence
How it was run: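 Measures microtubule-stimulated ATPase activity as ADP formed, detected by luminescence. Compounds were tested as 2-fold serial dilutions over 22 points. IC50 values came from four-parameter logistic fits.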

T1 sequence (Q8NI77 1-467): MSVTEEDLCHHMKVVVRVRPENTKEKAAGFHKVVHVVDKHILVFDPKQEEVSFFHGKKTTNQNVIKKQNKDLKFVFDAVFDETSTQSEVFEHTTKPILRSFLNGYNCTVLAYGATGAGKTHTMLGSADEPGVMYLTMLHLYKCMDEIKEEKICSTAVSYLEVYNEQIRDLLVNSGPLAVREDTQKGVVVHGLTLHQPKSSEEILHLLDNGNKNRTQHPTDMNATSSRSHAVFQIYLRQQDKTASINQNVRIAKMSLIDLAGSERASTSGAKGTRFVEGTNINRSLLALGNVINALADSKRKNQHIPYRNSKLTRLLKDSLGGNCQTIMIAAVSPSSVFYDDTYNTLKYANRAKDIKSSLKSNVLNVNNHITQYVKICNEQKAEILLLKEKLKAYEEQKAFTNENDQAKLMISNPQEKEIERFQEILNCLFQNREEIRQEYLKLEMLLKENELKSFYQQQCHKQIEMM
T1 sequence (P02550 whole entry partner): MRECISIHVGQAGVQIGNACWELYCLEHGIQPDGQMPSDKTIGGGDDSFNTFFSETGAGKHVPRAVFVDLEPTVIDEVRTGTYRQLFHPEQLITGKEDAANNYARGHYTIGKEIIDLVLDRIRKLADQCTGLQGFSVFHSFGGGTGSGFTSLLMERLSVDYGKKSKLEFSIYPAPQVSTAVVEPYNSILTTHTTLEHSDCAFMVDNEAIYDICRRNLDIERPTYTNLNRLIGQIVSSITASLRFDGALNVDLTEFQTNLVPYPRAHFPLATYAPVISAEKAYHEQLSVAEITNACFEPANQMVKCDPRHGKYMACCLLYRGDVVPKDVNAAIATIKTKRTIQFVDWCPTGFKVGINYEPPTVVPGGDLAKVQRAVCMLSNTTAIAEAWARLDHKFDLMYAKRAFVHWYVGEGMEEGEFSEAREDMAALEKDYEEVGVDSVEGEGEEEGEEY
T1 sequence (P02554 whole entry partner): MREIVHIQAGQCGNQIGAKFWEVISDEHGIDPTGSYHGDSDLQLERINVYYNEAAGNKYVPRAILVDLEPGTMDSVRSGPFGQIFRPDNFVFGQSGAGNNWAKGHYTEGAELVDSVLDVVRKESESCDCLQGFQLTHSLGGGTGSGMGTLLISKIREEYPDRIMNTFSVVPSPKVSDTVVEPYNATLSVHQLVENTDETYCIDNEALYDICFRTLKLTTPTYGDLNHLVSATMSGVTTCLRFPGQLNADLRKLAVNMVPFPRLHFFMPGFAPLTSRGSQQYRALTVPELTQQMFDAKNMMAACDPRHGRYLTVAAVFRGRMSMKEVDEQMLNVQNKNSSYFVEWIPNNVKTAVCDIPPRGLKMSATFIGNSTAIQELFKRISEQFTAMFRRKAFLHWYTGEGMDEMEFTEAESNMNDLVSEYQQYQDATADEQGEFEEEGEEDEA

Row | Structure (SMILES) | IC50 [nM]
1 | Cc1cc(NC(=O)c2ccc(NS(=O)(=O)C3(CO)CC3)cc2N2CCC3(CC2)CC3)nc(N2CCC(F)(F)CC2)c1 [Example 10, N-(6-(4,4-Difluoropiperidin-1-yl)-4-methylpyridin-2-yl)-4-((1-(hydroxymethyl)cyclopropane)-1-sulfonamido)-2-(6-azaspiro[2.5]octan-6-yl)benzamide] | 122
2 | Cc1cc(NC(=O)c2ccc(NS(=O)(=O)CCO)cc2N2CCC3(CC2)CC3)nc(N2CC(F)(F)C2)c1 [Example 11, N-(6-(3,3-Difluoroazetidin-1-yl)-4-methylpyridin-2-yl)-4-((2-hydroxyethyl)sulfonamido)-2-(6-azaspiro[2.5]octan-6-yl)benzamide] | 31
3 | CC1(S(=O)(=O)Nc2ccc(C(=O)Nc3cccc(OCC4CC4)n3)c(N3CCC4(CC3)CC4)c2)CC1 [Example 14, N-(6-(Cyclopropylmethoxy)pyridin-2-yl)-4-((1-methylcyclopropane)-1-sulfonamido)-2-(6-azaspiro[2.5]octan-6-yl)benzamide] | 19
4 | CC(C)(O)CCOc1cccc(NC(=O)c2ccc(NS(=O)(=O)CCO)cc2N2CCC3(CC2)CC3)n1 [Example 16-5, N-(6-(3-Hydroxy-3-methylbutoxy)pyridin-2-yl)-4-((2-hydroxyethyl)sulfonamido)-2-(6-azaspiro[2.5]octan-6-yl)benzamide] | 84
5 | O=C(Nc1cccc(OCCC(O)C(F)(F)F)n1)c1ccc(NS(=O)(=O)CCO)cc1N1CCC2(CC1)CC2 (stereo not drawn) [Example 16-6, 4-((2-Hydroxyethyl)sulfonamido)-2-(6-azaspiro[2.5]octan-6-yl)-N-(6-(4,4,4-trifluoro-3-hydroxybutoxy)pyridin-2-yl)benzamide] | 81
6 | CC(O)CCOc1cccc(NC(=O)c2ccc(NS(=O)(=O)CCO)cc2N2CCC3(CC2)CC3)n1 (stereo not drawn) [Example 16-7, N-(6-(3-Hydroxybutoxy)pyridin-2-yl)-4-((2-hydroxyethyl)sulfonamido)-2-(6-azaspiro[2.5]octan-6-yl)benzamide] | 31
7 | Cc1cc(NC(=O)c2ccc(NS(=O)(=O)CCO)cc2N2CCC3(CC2)CC3)nc(OCCC(F)(F)F)c1 [Example 17, 4-((2-Hydroxyethyl)sulfonamido)-N-(4-methyl-6-(3,3,3-trifluoropropoxy)pyridin-2-yl)-2-(6-azaspiro[2.5]octan-6-yl)benzamide] | 24
8 | Cc1cc(NC(=O)c2ccc(NS(=O)(=O)CCO)cc2N2CCC3(CC2)CC3)nc(OCCCC(F)(F)F)c1 [Example 17-3, 4-((2-Hydroxyethyl)sulfonamido)-N-(4-methyl-6-(4,4,4-trifluorobutoxy)pyridin-2-yl)-2-(6-azaspiro[2.5]octan-6-yl)benzamide] | 184
9 | Cc1ccc(NC(=O)c2ccc(NS(=O)(=O)CCO)cc2N2CCC3(CC2)CC3)nc1N1CCOCC1 [Example 18, 4-((2-Hydroxyethyl)sulfonamido)-N-(5-methyl-6-morpholinopyridin-2-yl)-2-(6-azaspiro[2.5]octan-6-yl)benzamide] | 12
10 | C[C@@H]1CN(c2cc(C3CC3)cc(NC(=O)c3ccc(NS(=O)(=O)CCO)cc3N3CCC4(CC3)CC4)n2)CCO1 [Example 19, (R)—N-(4-cyclopropyl-6-(2-methylmorpholino)pyridin-2-yl)-4-((2-hydroxyethyl)sulfonamido)-2-(6-azaspiro[2.5]octan-6-yl)benzamide] | 87
11 | C[C@@H]1CN(c2cc(C(F)(F)F)cc(NC(=O)c3ccc(NS(=O)(=O)CCO)cc3N3CCC4(CC3)CC4)n2)CCO1 [Example 20, (R)-4-((2-Hydroxyethyl)sulfonamido)-N-(6-(2-methylmorpholino)-4-(trifluoromethyl)pyridin-2-yl)-2-(6-azaspiro[2.5]octan-6-yl)benzamide] | 93
12 | N#Cc1ccc(NC(=O)c2ccc(NS(=O)(=O)CCO)cc2N2CCC3(CC2)CC3)nc1N1CCC(F)(F)CC1 [Example 21, N-(5-Cyano-6-(4,4-difluoropiperidin-1-yl)pyridin-2-yl)-4-((2-hydroxyethyl)sulfonamido)-2-(6-azaspiro[2.5]octan-6-yl)benzamide] | 25
13 | Cc1ccc(NC(=O)c2ccc(NS(=O)(=O)CCO)cc2N2CCC3(CC2)CC3)nc1N1CCC(F)(F)CC1 [Example 22, N-(6-(4,4-Difluoropiperidin-1-yl)-5-methylpyridin-2-yl)-4-((2-hydroxyethyl)sulfonamido)-2-(6-azaspiro[2.5]octan-6-yl)benzamide] | 41
14 | Cc1cc(NC(=O)c2ccc(NS(=O)(=O)CCO)cc2N2CCC3(CC2)CC3)nc(C2CCC(F)(F)CC2)c1 [Example 23, N-(6-(4,4-difluorocyclohexyl)-4-methylpyridin-2-yl)-4-((2-hydroxyethyl)sulfonamido)-2-(6-azaspiro[2.5]octan-6-yl)benzamide] | 41
15 | C[C@@H]1CN(c2nc(NC(=O)c3ccc(NS(=O)(=O)CCO)cc3N3CCC4(CC3)CC4)ccc2F)CCO1 [Example 24, (R)-N-(5-Fluoro-6-(2-methylmorpholino)pyridin-2-yl)-4-((2-hydroxyethyl)sulfonamido)-2-(6-azaspiro[2.5]octan-6-yl)benzamide] | 33
16 | C[C@@H]1CN(c2cc(C#N)cc(NC(=O)c3ccc(NS(=O)(=O)CCO)cc3N3CCC4(CC3)CC4)n2)CCO1 [Example 25, (R)-N-(4-Cyano-6-(2-methylmorpholino)pyridin-2-yl)-4-((2-hydroxyethyl)sulfonamido)-2-(6-azaspiro[2.5]octan-6-yl)benzamide] | 41
17 | CC(C)(C)S(=N)(=O)c1cccc(NC(=O)c2ccc(NS(=O)(=O)CCO)cc2N2CCC3(CC2)CC3)n1 (stereo not drawn) [Example 26, 4-((2-Hydroxyethyl)sulfonamido)-N-(6-(2-methylpropan-2-ylsulfonimidoyl)pyridin-2-yl)-2-(6-azaspiro[2.5]octan-6-yl)benzamide] | 363
18 | O=C(Nc1cccc(OCCC(F)(F)F)n1)c1ccc(S(=O)(=O)C2CNC2)cc1N1CCC2(CC1)CC2 [Example 31, 4-(Azetidin-3-ylsulfonyl)-2-(6-azaspiro[2.5]octan-6-yl)-N-(6-(3,3,3-trifluoropropoxy)pyridin-2-yl)benzamide trifluoroacetate] | 55

Now from value to compound:

Row | IC50 [nM] | Structure (SMILES)
19 | 55 | CC(C)(C)NS(=O)(=O)c1cccc(NC(=O)c2ccc(NS(C)(=O)=O)cc2N2CCC3(CC2)CC3)n1 [Example 7-43, N-(6-(N-(tert-Butyl)sulfamoyl)pyridin-2-yl)-4-(methylsulfonamido)-2-(6-azaspiro[2.5]octan-6-yl)benzamide]
20 | 16 | O=C(Nc1cncc(N2CCC(F)(F)CC2)n1)c1ccc(NS(=O)(=O)CCO)cc1N1CCC2(CC1)CC2 [Example 7-44, N-(6-(4,4-Difluoropiperidin-1-yl)pyrazin-2-yl)-4-((2-hydroxyethyl)sulfonamido)-2-(6-azaspiro[2.5]octan-6-yl)benzamide]
21 | 57 | C[C@@H]1CN(c2cccc(NC(=O)c3ccc(NS(=O)(=O)C4(CO)CC4)cc3N3CCC4(CC3)CC4)n2)CCO1 [Example 10-1, (R)-4-((1-(Hydroxymethyl)cyclopropane)-1-sulfonamido)-N-(6-(2-methylmorpholino)pyridin-2-yl)-2-(6-azaspiro[2.5]octan-6-yl) benzamide]
22 | 76 | Cc1cc(NC(=O)c2ccc(NS(=O)(=O)C3(CO)CC3)cc2N2CCC3(CC2)CC3)nc(N2CC(F)(F)C2)c1 [Example 10-2, N-(6-(3,3-Difluoroazetidin-1-yl)-4-methylpyridin-2-yl)-4-((1-(hydroxymethyl)cyclopropane)-1-sulfonamido)-2-(6-azaspiro[2.5]octan-6-yl)benzamide]
23 | 51 | CC(Oc1cccc(NC(=O)c2ccc(NS(=O)(=O)CCO)cc2N2CCC3(CC2)CC3)n1)C1CC1 (stereo not drawn) [Example 16-1, N-(6-(1-Cyclopropylethoxy)pyridin-2-yl)-4-((2-hydroxyethyl)sulfonamido)-2-(6-azaspiro[2.5]octan-6-yl)benzamide]
24 | 50 | CC1(COc2cccc(NC(=O)c3ccc(NS(=O)(=O)CCO)cc3N3CCC4(CC3)CC4)n2)COC1 [Example 16-2, 4-((2-Hydroxyethyl)sulfonamido)-N-(6-((3-methyloxetan-3-yl)methoxy)pyridin-2-yl)-2-(6-azaspiro[2.5]octan-6-yl)benzamide]
25 | 63 | CN1CC(COc2cccc(NC(=O)c3ccc(NS(=O)(=O)CCO)cc3N3CCC4(CC3)CC4)n2)C1 [Example 16-3, 4-((2-Hydroxyethyl)sulfonamido)-N-(6-((1-methylazetidin-3-yl)methoxy)pyridin-2-yl)-2-(6-azaspiro[2.5]octan-6-yl)benzamide]
26 | 115 | CC(O)COc1cccc(NC(=O)c2ccc(NS(=O)(=O)CCO)cc2N2CCC3(CC2)CC3)n1 (stereo not drawn) [Example 16-4, 4-((2-Hydroxyethyl)sulfonamido)-N-(6-(2-hydroxypropoxy)pyridin-2-yl)-2-(6-azaspiro[2.5]octan-6-yl)benzamide]
27 | 18 | O=C(Nc1cccc(OCC(O)C(F)(F)F)n1)c1ccc(NS(=O)(=O)CCO)cc1N1CCC2(CC1)CC2 (stereo not drawn) [Example 16-8, 4-((2-Hydroxyethyl)sulfonamido)-2-(6-azaspiro[2.5]octan-6-yl)-N-(6-(3,3,3-trifluoro-2-hydroxypropoxy)pyridin-2-yl)benzamide]
28 | 51 | O=C(Nc1cccc(OCCC(F)F)n1)c1ccc(NS(=O)(=O)CCO)cc1N1CCC2(CC1)CC2 [Example 16-9, N-(6-(3,3-Difluoropropoxy)pyridin-2-yl)-4-((2-hydroxyethyl)sulfonamido)-2-(6-azaspiro[2.5]octan-6-yl)benzamide]
29 | 68 | Cc1cc(NC(=O)c2ccc(NS(=O)(=O)CCO)cc2N2CCC3(CC2)CC3)nc(OCC(O)C(F)(F)F)c1 (stereo not drawn) [Example 17-1, 4-((2-Hydroxyethyl)sulfonamido)-N-(4-methyl-6-(3,3,3-trifluoro-2-hydroxypropoxy)pyridin-2-yl)-2-(6-azaspiro[2.5]octan-6-yl)benzamide]
30 | 59 | Cc1cc(NC(=O)c2ccc(NS(=O)(=O)CCO)cc2N2CCC3(CC2)CC3)nc(OCC(C)(C)O)c1 [Example 17-2, N-(6-(2-Hydroxy-2-methylpropoxy)-4-methylpyridin-2-yl)-4-((2-hydroxyethyl)sulfonamido)-2-(6-azaspiro[2.5]octan-6-yl)benzamide]
